According to paper PMC3752901 (Clinical cancer research : an official journal of the …, 2013):
Read-outs that look alike come from different tables or passages of the source.

Tests used:
mOct2 = target: T1, mOct2 (Mus musculus, UniProt O70577); test: Uptake in HEK293 cells expressing mOct2; type: in vitro ADME; conditions: HEK293, 1 μM
T1 sequence (O70577 1-553): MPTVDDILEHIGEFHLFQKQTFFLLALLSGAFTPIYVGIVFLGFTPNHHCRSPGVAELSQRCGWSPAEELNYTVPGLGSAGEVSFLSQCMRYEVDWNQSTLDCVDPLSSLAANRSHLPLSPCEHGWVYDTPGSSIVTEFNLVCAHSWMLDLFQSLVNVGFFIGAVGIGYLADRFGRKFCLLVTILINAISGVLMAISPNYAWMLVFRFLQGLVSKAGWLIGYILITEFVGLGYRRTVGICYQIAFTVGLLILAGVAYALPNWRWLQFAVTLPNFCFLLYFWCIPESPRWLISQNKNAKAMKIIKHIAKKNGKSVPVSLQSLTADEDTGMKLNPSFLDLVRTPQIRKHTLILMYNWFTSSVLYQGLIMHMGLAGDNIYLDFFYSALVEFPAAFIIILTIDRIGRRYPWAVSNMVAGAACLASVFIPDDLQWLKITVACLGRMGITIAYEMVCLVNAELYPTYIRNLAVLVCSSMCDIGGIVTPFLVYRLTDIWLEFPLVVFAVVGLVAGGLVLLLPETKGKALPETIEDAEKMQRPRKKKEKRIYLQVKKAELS

[1] = Binding to serum proteins; type: in vitro ADME; conditions: male, C57BL/6, mouse
[2] = cited from earlier work
mouse Abcc4 = target: T2, mouse Abcc4 (Mus musculus, UniProt E9Q236); test: Accumulation/efflux in Saos-2 cells transfected with Abcc4; conditions: 100 μM, 4-h incubation
T2 sequence (E9Q236 1-1325): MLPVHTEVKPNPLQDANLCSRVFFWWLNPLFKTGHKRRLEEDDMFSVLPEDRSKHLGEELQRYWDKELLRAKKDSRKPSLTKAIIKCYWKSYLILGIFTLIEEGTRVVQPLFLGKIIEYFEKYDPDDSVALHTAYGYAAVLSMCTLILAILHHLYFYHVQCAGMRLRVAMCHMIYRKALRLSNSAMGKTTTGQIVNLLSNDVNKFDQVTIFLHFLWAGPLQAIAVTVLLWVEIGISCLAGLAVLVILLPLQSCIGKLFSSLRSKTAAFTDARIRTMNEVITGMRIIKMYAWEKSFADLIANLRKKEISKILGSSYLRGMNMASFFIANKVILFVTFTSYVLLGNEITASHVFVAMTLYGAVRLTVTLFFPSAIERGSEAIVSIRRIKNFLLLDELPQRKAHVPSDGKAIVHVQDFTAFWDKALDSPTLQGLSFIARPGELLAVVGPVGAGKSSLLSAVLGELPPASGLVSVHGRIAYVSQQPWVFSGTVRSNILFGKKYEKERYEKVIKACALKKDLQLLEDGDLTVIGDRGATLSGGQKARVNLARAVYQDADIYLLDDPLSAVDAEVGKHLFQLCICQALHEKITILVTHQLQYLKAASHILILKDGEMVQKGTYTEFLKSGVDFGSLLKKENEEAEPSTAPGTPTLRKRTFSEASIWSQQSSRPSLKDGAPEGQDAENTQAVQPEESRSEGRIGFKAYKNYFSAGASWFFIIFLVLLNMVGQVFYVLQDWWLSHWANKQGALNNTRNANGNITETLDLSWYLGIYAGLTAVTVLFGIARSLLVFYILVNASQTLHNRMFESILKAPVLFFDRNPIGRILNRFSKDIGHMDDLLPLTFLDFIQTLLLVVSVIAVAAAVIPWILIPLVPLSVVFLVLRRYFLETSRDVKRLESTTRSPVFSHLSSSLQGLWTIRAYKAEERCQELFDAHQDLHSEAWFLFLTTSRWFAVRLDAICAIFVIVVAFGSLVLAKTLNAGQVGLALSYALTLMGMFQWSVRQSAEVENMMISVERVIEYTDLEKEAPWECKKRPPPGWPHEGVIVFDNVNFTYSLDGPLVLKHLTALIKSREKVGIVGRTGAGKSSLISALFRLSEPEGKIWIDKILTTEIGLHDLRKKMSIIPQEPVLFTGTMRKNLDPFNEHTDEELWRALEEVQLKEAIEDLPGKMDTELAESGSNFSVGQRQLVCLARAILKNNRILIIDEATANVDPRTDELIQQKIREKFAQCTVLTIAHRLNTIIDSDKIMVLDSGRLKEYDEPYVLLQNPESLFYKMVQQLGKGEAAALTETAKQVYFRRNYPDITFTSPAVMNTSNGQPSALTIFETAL

For Cc1nc(Nc2ncc(C(=O)Nc3c(C)cccc3Cl)s2)cc(N2CCN(CCO)CC2)n1 [dasatinib, Dasatinib], the “intracellular accumulation on overexpression of Oct2” value (mOct2) was “did not alter intracellular accumulation”, the fraction unbound ([1]; Abcc4(−/−) mice) was 0.0812 ± 0.00493 and the fraction unbound ([1]; wildtype mice) was 0.087 ± 0.0044. The “coefficient of variation in AUC” value ([2]; adult patients) was greater than 50%, the “coefficient of variation in AUC” value ([2]; pediatric patient population) was no more than 46% and the “transport by mouse Abcc4 (accumulation in Saos-2 cells overexpressing Abcc4 compared to control cells)” value (mouse Abcc4) was “significantly reduced accumulation”.
